# Results reported in patent US20060241037A1, “Compositions comprising trefoil factor family peptides and/or mucoadhesives and proton pump ihhibitor prodrugs” (ALLERGAN INC., priority 2003, published 2006).
# Assays:
# [1] = Pharmacokinetic study in dogs (oral / intravenous), systemic half-life by LC-MS/MS; assay type: in vivo, dogs (beagle); set-up: key to T1/2 Prodrug: NC: plasma concentration of prodrug was too low to calculate half-life, or undetected; settings: for T1/2 Prodrug / T1/2 PPI / half-life: Dog, SD in parenthesis; for T1/2 Prodrug: systemic half-life of intact prodrug; for T1/2 PPI / half-life: systemic half-life of the proton pump inhibitor; for t1/2: systemic half-life of parent PPI in dogs after oral administration; for half-life: beagle, blood, po, read-out: T1/2 PPI (converted)
# Method: (§1) Blood concentrations of the compounds omeprazole, lansoprazole, pantoprazole, rabeprazole, and test compounds were quantified using an achiral liquid chromatography tandem mass spectrometry method (LC-MS/MS). Systemic pharmacokinetic parameters were determined for omeprazole or lansoprazole using non-compartmental analysis in Watson® version 6.3, available from InnaPhase Corporation, Philadelphia, Pa.
# [2] = Pharmacokinetic study in rats (oral / intravenous), systemic half-life by LC-MS/MS; assay type: in vivo, rats (Sprague-Dawley); set-up: key to T1/2 Prodrug: NC: plasma concentration of prodrug was too low to calculate half-life, or undetected; settings: Rat, SD in parenthesis; for T1/2 Prodrug: systemic half-life of intact prodrug; for T1/2 PPI: systemic half-life of the proton pump inhibitor
# Method: as §1
# Caco-2 cells = assay: Membrane permeability (Papp) across Caco-2 cell monolayer, apical to basolateral; assay type: in vitro ADME; settings: Caco-2, apical to basolateral, 10 μM, 37° C.
# Method: Determination of membrane permeability in all examples described herein was accomplished by the following procedure. This procedure is also used to determine whether a given prodrug falls within the scope of those claims given herein which relate to membrane permeability.
# Caco-2 cells were seeded on Costar™ 12 mm diameter, 0.4 μm pore size transwell filters, and were cultured at 37° C., 5% CO2 in a humidified tissue culture chamber.
# DMEM was equilibrated as a transport buffer in 37° C. water bath an hour before experiment. The cells were then equilibrated in transport buffer for 1 hr at 37° C.
# Dosing solution (10 μM) was prepared by adding a 20 μL aliquot of a 10 mM stock solution of the prodrug to 20 mL of transport buffer.
# Transport across Caco-2 cell monolayer was measured at 37° C., in the apical to basolateral direction (n=3).
# Transport buffer was removed from both apical and basolateral compartment of filters. Dosing solution (0.2 mL) was added to the apical compartment of the cell layers on transwell filters, and 0.8 ml fresh pre-warmed transport buffer was added to basolateral compartment. Timing was started for transport, and at 5, 20, and 60 min after transport started, sample fluid (400 μL) was collected from the basolateral compartment. Fresh transport buffer (400 μL) was added back to the basolateral compartment, and the fluid was thoroughly mixed.
# The apparent permeability coefficient (Papp, cm/sec), otherwise known herein as the membrane permeability, is determined from the following relationship: Papp=J/(ACo) where J (pmol/min) is the transport rate, meaning the rate of prodrug movement through the cell layer, A (cm^2) is the filter surface area, and Co (μM) is the initial dosing concentration.
# Lucifer yellow (LY) was used as a paracellular permeability reference standard to determine integrity of cell layers used in the experiments. […] Fluorescence level in basolateral fluid sampled at 5, 20, and 60 min post dose was determined using Fluostar Galaxy (BMG Labtechnologies, Durham, N.C.) at excitation/emission wavelengths of 485/520 nm. […]
SMILES,T1/2 Prodrug [1],T1/2 PPI [1],T1/2 Prodrug [2],T1/2 PPI ([2]; in h),other results
Cc1c(OCC(F)(F)F)ccnc1C[S+]([O-])c1nc2ccccc2n1S(=O)(=O)c1ccc(OCC(C)(C)C(=O)O)cc1 (stereo not shown) [Compound 11],NC,0.873 (0.288),NC,0.933 (1.009),
COc1ccc(S(=O)(=O)n2c([S+]([O-])Cc3nccc(OCC(F)(F)F)c3C)nc3ccccc32)cc1C(=O)O (stereo not shown) [Compound 8],NC,64.8 min,NC,1.80 (1.20),t1/2 [1]: 66 min; Permeability (Caco-2 cells): 0.23 ×10⁻⁶ cm/s
COCCCOc1ccnc(C[S+]([O-])c2nc3ccccc3n2S(=O)(=O)c2ccc(C(=O)O)cc2)c1C (stereo not shown) [Compound 33],44.8 min,53.6 min,,,
COc1ccc(C(=O)O)cc1S(=O)(=O)n1c([S+]([O-])Cc2nccc(OCC(F)(F)F)c2C)nc2ccccc21 (stereo not shown) [Compound 14],7.08 min,83.4 min,,0.536 (0.217),
Cc1ccc(C(=O)O)cc1S(=O)(=O)n1c([S+]([O-])Cc2nccc(OCC(F)(F)F)c2C)nc2ccccc21 (stereo not shown) [Compound 13],7.32 min,106 min,NC,2.35 (1.22),
Cc1cc(OCC(=O)O)cc(C)c1S(=O)(=O)n1c([S+]([O-])Cc2nccc(OCC(F)(F)F)c2C)nc2ccccc21 (stereo not shown) [Compound 34],,,NC,1.11 (0.71),
Cc1c(OCC(F)(F)F)ccnc1C[S+]([O-])c1nc2ccccc2n1S(=O)(=O)c1ccc(OCC(=O)O)c(OCC(=O)O)c1 (stereo not shown) [Compound 35],,,NC,1.84 (0.87),
Cc1c(OCC(F)(F)F)ccnc1C[S+]([O-])c1nc2ccccc2n1S(=O)(=O)c1ccc(C(=O)O)c(OCC(=O)O)c1 (stereo not shown) [Compound 16],NC,60 min,NC,1.86 (0.74),
"Cc1c(OCC(F)(F)F)ccnc1C[S+]([O-])c1nc2ccccc2[nH]1 (stereo not shown) [Lansoprazole, reference compound]",,,,,half-life [1]: 34.4 min; t1/2 [1]: 34.2 min
"COc1ccc2[nH]c([S+]([O-])Cc3ncc(C)c(OC)c3C)nc2c1 (stereo not shown) [Omeprazole, reference compound]",,,,,half-life [1]: 41.8 min; t1/2 [1]: 42 min
Cc1c(OCC(F)(F)F)ccnc1C[S+]([O-])c1nc2ccccc2n1S(=O)(=O)c1ccc(CC(=O)O)c(CC(=O)O)c1 (stereo not shown) [Compound 12],NC,55.9 min,,,
Cc1cc(C(=O)O)ccc1S(=O)(=O)n1c([S+]([O-])Cc2nccc(OCC(F)(F)F)c2C)nc2ccccc21 (stereo not shown) [Compound 37],,,NC,2.19 (0.80),
Cc1ccc(S(=O)(=O)n2c([S+]([O-])Cc3nccc(OCC(F)(F)F)c3C)nc3ccccc32)cc1CCC(=O)O (stereo not shown) [Compound 19],110 min,29 min,,,
COCCCOc1ccnc(C[S+]([O-])c2nc3ccccc3n2S(=O)(=O)c2c(C)cc(OCC(=O)O)cc2C)c1C (stereo not shown) [Compound 32],31.6 min,91.2 min,,,
Cc1c(OCC(F)(F)F)ccnc1C[S+]([O-])c1nc2ccccc2n1S(=O)(=O)c1ccc(C(=O)O)cc1 (stereo not shown) [Compound 36],,,NC,0.389 (0.085),
COc1ccc(S(=O)(=O)n2c([S+]([O-])Cc3nccc(OCC(F)(F)F)c3C)nc3ccccc32)cc1CCC(=O)O (stereo not shown) [Compound 38],,,,1.43 (0.42),T1/2 Prodrug ([2]; in h): 1.04 (0.35)
Cc1c(OCC(F)(F)F)ccnc1C[S+]([O-])c1nc2ccccc2n1S(=O)(=O)c1cccc(C(=O)O)c1 (stereo not shown) [Compound 7],12.4 min,53.6 min,NC,1.93 (1.41),t1/2 [1]: 53.4 min; Permeability (Caco-2 cells): 0.16 ×10⁻⁶ cm/s
Cc1c(OCC(F)(F)F)ccnc1C[S+]([O-])c1nc2ccccc2n1S(=O)(=O)c1ccc(OCC(=O)O)cc1 (stereo not shown) [Compound 10],NC,0.989 (0.307),,,
Cc1c(OCC(F)(F)F)ccnc1C[S+]([O-])c1nc2ccccc2n1S(=O)(=O)c1ccc(C(=O)O)cc1 (stereo not shown) [Compound 18],5.39 min,54.5 min,,,
Cc1cc(OCC(=O)O)cc(C(C)C)c1S(=O)(=O)n1c([S+]([O-])Cc2nccc(OCC(F)(F)F)c2C)nc2ccccc21 (stereo not shown) [Compound 17],89.4 min,67.8 min,,,
COCCCOc1ccnc(C[S+]([O-])c2nc3ccccc3n2S(=O)(=O)c2cccc(C(=O)O)c2)c1C (stereo not shown) [Compound 30],67.2 min,29.5 min,,,
COCCCOc1ccnc(C[S+]([O-])c2nc3ccccc3n2S(=O)(=O)c2cc(C(=O)O)ccc2C)c1C (stereo not shown) [Compound 31],50.6 min,51.3 min,,,
Cc1c(OCC(F)(F)F)ccnc1C[S+]([O-])c1nc2ccccc2n1S(=O)(=O)c1ccc(CC(=O)O)cc1C(C)C (stereo not shown) [Compound 15],NC,55.4 min,,,
Cc1c(OCC(F)(F)F)ccnc1C[S+]([O-])c1nc2ccccc2n1S(=O)(=O)c1ccc(CC(=O)O)cc1 (stereo not shown) [Compound 9],NC,53.6 min,NC,0.341 (0.151),t1/2 [1]: 53.4 min; Permeability (Caco-2 cells): 0.34 ×10⁻⁶ cm/s
